Test results taken from a melting point compilation (Tetko et al.; mined from patent text by program, amines drawn as free bases though some values may be those of a salt).

Compound | melting point [°C]
CCO[C@@H](Cc1ccc(OCCc2nc(C(C)(C)C)oc2C)c2ccsc12)C(=O)O | 152 to 153
CC(C)ON=C(c1cccc(O)c1)n1cncn1 | 160 to 163
CC(O)C(=O)NCCNC(=O)C(C)O (stereo unspecified) | 188
O=C(NCc1ccc(Cl)cc1)c1cn(Cc2ccccc2)c2sc(CN3CCOCC3)cc2c1=O | 225 to 226
O=C(O)C1C=CC=CC1(F)OC(Cc1c(CCNS(=O)(=O)Cc2ccc(Cl)c(Cl)c2)[nH]c2ccc(Cl)cc12)C(c1ccccc1)c1ccccc1 (stereo unspecified) | 117 to 119
O=CC=Cc1ccc(O)c(O)c1 | 200 to 202
CCCCCC(=O)NS(=O)(=O)CCc1cc(OC(C)C)nn1Cc1ccc(Cl)cc1Cl | 107 to 108
COc1ccc(Cn2cnc3c(-c4ccco4)nc(C#N)nc32)cc1 | 205 to 207
CCCCCCCCCCNC(=O)N(C)O | 74 to 76
CNc1nc(=O)c2ccccc2n1Cc1ccc(F)cc1 | 251 to 255
NC(=O)N1CC(Oc2ccc(Cl)cc2Cl)C1 | 169 to 170
CNC(=NC#N)NCc1cccc(-c2csc(N=C(N)N)n2)n1 | 245 to 246
CC(=O)SCC(Cc1ccc(F)cc1F)C(=O)Nc1cccc(C(=O)O)c1 (stereo unspecified) | 164 to 166
COc1cc(OC)nc(Oc2ccccc2C(=O)NS(=O)(=O)C(C)C)n1 | 128 to 130
CC(C)(CO)NS(=O)(=O)c1cc(NC(=O)c2cnn3c(C(F)F)cc(-c4ccc(C(F)(F)F)cc4)nc23)c(Cl)s1 | 233
N#CC(N)=C(C#N)N=Cc1cnn(-c2c(F)cc(F)cc2F)n1 | 213 to 215
CCCc1nn(C)c2c(=O)[nH]c(Cc3ccc(S(=O)(=O)N[C@@H](CO)C(N)=O)cc3)nc12 | 226 to 229
CC(=O)c1nccc(-c2ccc(Oc3ccc(F)cc3)cc2)n1 | 61 to 63
CC(C)(C)c1cc(C=O)cc(I)c1O | 124
O=CC1=Cc2cc(-c3ccccc3)ccc2OC1 | 108 to 110
COC(=O)c1sc(Br)cc1N | 173 to 176
CCCn1c(=O)c2nc(-c3ccc(/C=C/C(=O)O)cc3)[nH]c2n(CC2CCCCC2)c1=O | > 350
CCOC(=O)[C@H]1C2C1[C@](N[C@H](C)c1ccccc1)(C(=O)OCC)C[C@@H]2O (stereo partly specified) | 73 to 74
CC(C)C1(C)N=C(c2ncc(C3OCC(C)(C)CO3)cc2C(=O)O)NC1=O (stereo unspecified) | 163 to 170
CCOc1cccc2c1c(=O)n(C)c1c(-c3noc(C4CC4)n3)ncn21 | 195 to 205
O=C(O)N[C@@H](CC1CCCCC1)[C@@H](O)[C@@H]1CCCS1 | 118 to 119

Compound | melting point [°C]
O=C(Nc1ccc2cc(CN3CCCC3)cnc2c1)c1ccc(-c2ccc(F)cc2)nc1 | 218 to 220
O=C(NCCc1cccs1)c1ccc(-c2ccccc2)cc1 | 164 to 166
CS(=O)(=O)c1ccc(-c2nc(C(F)(F)F)nc(N=[N+]=[N-])c2-c2ccc(Cl)cc2)cc1 | 317 to 320
Cc1nnnn1-c1ccccc1S(N)(=O)=O | 141 to 148
O=C(O)c1cc(F)ccc1Nc1ccnc2c(C(F)(F)F)cccc12 | 262 to 268
Nc1cccc(-c2ccc(CCN3CCN(CCc4ccc(F)cc4)CC3)cc2)n1 | 165 to 167
Brc1ccc(NN=C(Cc2ccco2)c2ccccc2)nc1 | 105 to 107
CCCc1nc2c(N)nc3ccccc3c2n1CCCCCCCCCCCC(=O)NC | 135 to 137
Nc1sccc1C(=O)c1ccc(Cl)cc1 | 178 to 180
O=C1NCCC[C@@H]1NS(=O)(=O)c1ccc(F)cc1F | 162 to 163
Oc1ccc2c(c1)OCC(c1ccccc1)C2c1ccc(OCCN2CCCCC2)cc1 (stereo unspecified) | 168 to 170
CCC(C)(CC)NC(=NC#N)Nc1cccnc1 | 184 to 186
CCc1nc2c(N)nc3ccccc3c2n1CC1(O)CCOC1 (stereo unspecified) | 245 to 247
CCCCCC(=O)Nc1ccc2ccn(Cc3ccc(C#N)cc3OC)c2c1 | 136 to 138
O=C1c2cc3ccc4c(c3c(-c3ccncc3)c2C[NH+]1[O-])OCO4 (stereo unspecified) | 270 to 274
CC(C)[Si](C)(C)CCCSCCCNC(=O)n1cc(F)c(=O)[nH]c1=O | 101 to 102
CCc1nc2c(N)nc3ccc(O)cc3c2n1CCCCNS(C)(=O)=O | 128 to 130
CCCS(=O)(=O)Oc1ccc(CO)c(Oc2ncc(C(F)(F)F)cc2Cl)c1 | 68.5 to 69.5
O=C(O)CCCCCCCCn1nnc(-c2ccccc2)c1-c1ccccc1 | 86 to 87
CC(=O)NCCn1cccc1C1=CC(=O)c2ncccc2C1=O | 164 to 165
Nc1cccc(S(=O)(=O)NC2(CO)CCCC2)c1 | 130 to 132
CC1OC(=O)N(C(=O)NCCCN2CCC(c3ccc(F)cc3)CC2)C1c1ccc(F)c(F)c1 (stereo unspecified) | 108 to 112
COC(=O)COc1ccc2cc(-c3csc(Cc4c(Cl)cccc4Cl)n3)ccc2c1 | 174 to 177
COc1ccc(-c2cc(=Nc3c(C)cc(C)cc3C)n(C)c(N3CCN(C(=O)c4ccc(F)cc4)CC3)n2)cc1OC | 117 to 121
O=C1c2ccccc2C(=S)N1C1CCC(=S)NC1=S (stereo unspecified) | 244
CC(C)(O)c1nnc2ccc(-c3c(-c4ccc(F)cc4F)nc4occn34)nn12 | 258 to 260

Compound | melting point [°C]
CS(=O)(=O)c1ccc(Oc2cc(OCc3ccccc3)c3[nH]c(C(N)=O)cc3c2)cc1 | 251 to 252
CNC(=O)C1CCCN1S(=O)(=O)c1ccc(N2CCC3(CC2)OCCO3)cc1 (stereo unspecified) | 137 to 139
Nc1nc(Nc2ccc([N+](=O)[O-])cc2)sc1C(=O)c1ccccc1[N+](=O)[O-] | 266 to 268
CCCCCCc1ccc2c3ccc(CO)cc3n(C)c2c1 | 90 to 91
CC(C)(C)OC(=O)Nc1cc(C(F)(F)F)ccc1-c1cc(Oc2ccc3cccnc3c2)ncn1 | 159 to 162
NCC(c1ccc(Cl)cc1)C1CCCCCC1O (mixture of isomers) | 92 to 93
CN(C(=O)CN1C(=O)C2(COc3cc4c(cc32)CCO4)c2ccccc21)c1ccccc1 (stereo unspecified) | 234 to 238
CC(=O)c1ccc(CNC(=O)c2cccnc2Oc2ccc3nonc3c2)cc1 | 154 to 156
Cc1cc(S(F)(F)(F)(F)F)ccc1C(=O)O | 138 to 139
Cc1cc2c(cc1S(=O)(=O)N1CCOCC1)S(=O)(=O)NC(C1CCCCC1)N2 (stereo unspecified) | 268 to 271
CNC(=O)c1cc(-c2ccc(OC)cc2)n[nH]c1=O | 246 to 247
N#Cc1cnccc1CCCOc1cccnc1Oc1cccc(Cl)c1 | 146 to 150
CNC(=O)C1Cc2c(n(C)c3ccc(OCc4ccccc4)cc23)C1 (stereo unspecified) | 176 to 177
N#CCc1nnc2n1-c1ccc(Cl)cc1C(c1ccccc1)=NC2 | 198 to 201
O=C(O)c1ccc(NCCCc2ccccc2)cc1 | 162 to 163
COCC1CN(c2ccc(C3CCC(=O)CC3)cc2)C(=O)O1 (racemic) | 114 to 116
COc1ccc(C(O)(c2ccccc2)c2ccc(OC)cc2)cc1 | 122 to 124
Cc1nc(N2CCN(Cc3ccc(F)cc3)C2=O)sc1C(N)=O | 201 to 203
CCC(CC)Nc1cc(C(=O)O)ccc1N1CCCC1=O | 178 to 180
Oc1ccc2c(c1)CC(O)C2 (stereo unspecified) | 112 to 115
CCN(CC)c1ccc2cc(C=CC(=O)c3c(N(CC)CC)c4ccccc4oc3=O)oc2c1 | 169 to 171
COc1ccc2sc(=Nc3ccccc3)sc2c1 | 58 to 60
CC(C)(C)c1cc(SCCC(=O)NNC=O)cc(C(C)(C)C)c1O | 158 to 159
CCCCCCNC(=O)Oc1cccc(NC(=O)CC(C)=O)c1 | 125
COC(=S)NCc1cn(-c2ccc(-n3cccc3)cc2)nn1 | 150
O=c1nc(-c2ccccn2)sc2ncccc12 | 235

Compound | melting point [°C]
O=C(O)/C=C/C=C(c1cccc(Cl)c1)c1cccc(Cl)c1 | 142 to 145
O=C(CN1C(=O)CC1SCc1ccccc1)NCCCCCCc1ccccc1 (stereo unspecified) | 65 to 70
NC(=O)c1ccc(OCCNCC(O)COc2nccnc2Cl)cc1 (stereo unspecified) | 134 to 135
CC(=O)c1ccc(NS(C)(=O)=O)c(S(=O)c2ccc(F)cc2F)c1 (stereo unspecified) | 151 to 152
CC(C)(C)SC(=S)c1cc(C(C)(C)C)c(O)c(C(C)(C)C)c1 | 128 to 130
CCCNC(=O)CCCCCn1c(COCC)nc2c(N)nc3ccccc3c21 | 161 to 162
CCOC(=O)CNC(=O)N(O)C1CC(c2ccc(F)cc2)C1 (stereo unspecified) | 130 to 132
Cn1c(=O)cc(-c2ccccc2)c2cc(C(c3ccc(Cl)cc3)n3ccnc3)ccc21 (stereo unspecified) | 155
COCC1=C(C(=O)OC)C(c2ccc(Br)cc2)C(C(=O)OC)=C(COC)N1 | 162 to 163
CC(C)(C)N(C(=O)C(O)(C(=O)O)c1ccccc1)C(C)(C)C (stereo unspecified) | 99 to 100
N#CCc1ccc(Cl)nc1 | 80
O=C(Cl)Oc1ccc(-c2ccccc2)cc1 | 36
CC(=O)Nc1ccnn(C)c1=O | 152 to 153
N#Cc1nn(-c2c(Cl)cc(C(F)(F)F)cc2Cl)c(Cl)c1C=C(Br)Br | 119 to 120
CCCCC(C)(OC)C(O)C=CC1C(O)CC(=O)C1CCCCCCC(=O)OC (stereo unspecified) | 44 to 45
Cc1nc2c(OC3CCc4ccccc43)nccc2n1C (stereo unspecified) | 164 to 165
COc1cc2c(Nc3ccc(Oc4ccccc4)cc3)c(C#N)cnc2cc1OCCN1CCC(N2CCCCC2)CC1 | 141
Cc1cc(=O)c(C(=O)Nc2nnc(C)s2)c(C)o1 | 203 to 204
COc1ccc2c(c1)c(=O)c(CO)cn2C | 194 to 197
CC(Oc1ccc(-c2ccc(Cl)cc2Cl)cc1)C(O)CCc1cccnc1 (stereo unspecified) | 98 to 100
O[C@@H](CNCCOc1ccc2oc(-c3ccon3)cc2c1)c1cccc(C(F)(F)F)c1 | 113 to 114
C[C@H](NC(=O)[C@@H](CC(=O)O)NC(=O)c1ccccc1)C(=O)N1CCC[C@H]1C(=O)O | 161 to 163
CCCc1c(OCc2ccc(C=CC(=O)OC)cc2)ccc(C(C)=O)c1O | 121 to 125
